The values that follow come from article PMC10707468, “Pharmacokinetics of Novel Dopamine Transporter Inhibitor CE-123 and Modafinil with a Focus on Central Nervous System Distribution” (International Journal of Molecular Sciences, 2023).

The term fraction unbound denotes the share of the substance not bound to proteins or other matrix.

Read-outs that look alike come from different tables or passages of the source. Bounds are passed on as bounds.

The subject of data set [1] is cerebEND in vitro model of the blood–brain barrier. The conditions noted are these: 100 µM CE-123 and modafinil, Transwell cerebEND, blank inserts deducted; cited from earlier work.
The nature of data set [2]: Equilibrium dialysis, brain tissue binding. It is filed as in vitro ADME, rat. Particulars: for fraction unbound at 5 h, 10 µM: whole brain homogenate (1:9 in PBS), rat brain homogenate 1:9 in PBS pH 7.4, 10 µM, corrected for dilution, read-out: Fraction unbound in brain homogenate, fu,brain. As to the method: (§1) A Teflon 96-well plate (model HTD96b, HTDialysis LLC, Gales Ferry, CT, USA) was used in all tissue-binding experiments. Th evaluation of PPB was determined according to van Liempd et al. (2011) and BTB according to the previously published protocols. […] The whole brain tissue from three rats was individually homogenized in 9 volumes of phosphate-buffered saline (PBS), pH 7.4. […] Then, 100 µL of spiked plasma or brain tissue homogenate in triplicate was dialyzed against an equal volume of PBS, pH 7.4, for 5 h at 37 °C and 200 rpm. Furthermore, 50 µL was taken from both sides of the membrane at the end of incubation. The unbound fraction of the compounds in the plasma (fu,plasma) or in the diluted (D) brain homogenate (fu,hD) was calculated according to the following equation:(1) fu,plasma or fu,hD=Cbuffer/Ctissue where Cbuffer represents the concentration of the compound measured in the buffer and Ctissue is the concentration measured in the plasma or brain tissue homogenate. Due to dilution, fu,hD is usually higher than the actual fu,brain. Thus, fu,hD was corrected for the dilution factor (D), which is in this case 10 times. (2) fu,brain=fu,hD/D+fu,hD−D·fu,hD

Data set [3] is described as follows: Equilibrium dialysis, plasma protein binding. Format: in vitro ADME, rat. The conditions noted are these: for free (unbound) in plasma / Fraction unbound in plasma, fu,plasma: rat plasma; for Fraction unbound in plasma, fu,plasma / fraction unbound at 5 h, 10 µM: 10 µM, 5 h, 37 °C, plasma with 10% DMF; for fraction unbound at 5 h, 10 µM: rat, undiluted rat plasma containing 10% DMF, pH 7.4, rat plasma, read-out: Fraction unbound in plasma, fu,plasma. As to the method:
as §1
On the technique in general: In equilibrium dialysis free small molecules cross a membrane that holds back macromolecules.

The nature of data set [4]: In vitro metabolic stability in human liver microsomes. It is filed as in vitro ADME. The conditions noted are these: for % of the parent drug remaining / half-life at 1 µM / microsomal CLint at 1 µM: 1 µM; for % of the parent drug remaining: 60 min incubation; for half-life at 1 µM / microsomal CLint at 1 µM: human, human liver microsomes, pH 7.4; for half-life at 1 µM: 0.5 mg/mL protein, read-out: half-life (t1/2); for microsomal CLint at 1 µM: read-out: intrinsic clearance (CLint). Here is the method: An in vitro metabolism assay to study the phase I metabolism in the HLMs was in-house-developed. Optimization of the protocol included the test compound concentration (1, 5, 10 m and 50 µM) and extraction solvents (ACN and MeOH). […] The metabolic assay was initiated by the addition of 10 mM NADPH to the reaction solution and terminated after 0, 2.5, 5, 15, 30, 45, and 60 min via the addition of 200 µL of ice-cold MeOH containing the IS solution. The samples were than vortexed and spun for 15 min (14,000× g, 4 °C). The supernatant was collected, evaporated to dryness using the Concentrator plus (Eppendorf), and reconstituted with 100 µL of ACN/0.1% FA in water 10:90 (v:v). To ensure that the assay was performing adequately, the incubation of 1 µM diazepam at the same assay conditions as described was conducted, and the formation of its metabolites temazepam and nordazepam was monitored. A negative control included the absence of NADPH, the test compound, or HLMs during assay. […] The metabolic stability curves of the tested compounds were established by plotting the incubation time against the natural logarithm of the % parent drug remaining. The slope (k) of the linear part was utilized for the in vitro half-life (t1/2, min) as ln2/k. The V (µL/mg) was calculated as the volume of the reaction solution (100 µL) divided by the protein amount in the incubation (0.5 mg). The protein amount was predetermined by the supplier and the content was checked by using a Pierce™ BCA Protein Assay Kit (Thermo Fisher Scientific, Vienna, Austria) for each freshly opened tube. The intrinsic clearance (CLint, µL/min/mg) was calculated according to the following equation:(7) CLint=0.693/t1/2·V […]
A general note: Liver microsomes are vesicles of endoplasmic reticulum, rich in cytochrome P450 enzymes.

A short description of data set [5]: NeuroPK parameters by Combinatory Mapping Approach. It is filed as in vivo. The conditions noted are these: rat; for concentration at 4 h / Kp uu at 4 h: Sprague-Dawley, intravenous, 20 mg/kg; for concentration at 4 h: brain interstitial fluid, steady state, Equation (6), read-out: Unbound-drug concentration in brain interstitial fluid, Cu,brainISF; for Kp uu at 4 h: extent of BBB transport, Equation (4), read-out: Unbound brain-to-plasma concentration ratio, Kp,uu,brain; for Kp uu: brain slices (Vu,brain) and brain homogenate (fu,brain), Equation (5), Vu,brain·fu,brain, read-out: Unbound intracellular-to-extracellular (interstitial) concentration ratio, Kp,uu,cell; for Kp,uu at the blood–spinal cord barrier (BSCB): spinal-cord-to-plasma unbound ratio. An excerpt: The neuropharmacokinetic (neuroPK) parameters of the novel DAT inhibitor as well as modafinil have so been far assessed based on the total drug concentration in the plasma and the entire brain, usually at a single time point in a non-dedicated PK study. Yet, the total brain-to-plasma concentration ratio (Kp,brain) is just one of the neuroPK parameters with a limited use for characterization of the extent of BBB transport. According to the Free Drug Theory, the concentration of unbound (free) drugs, particularly at a site of action like the brain, governs the pharmacological effect(s), emphasizing the significance of unbound drug concentrations in distribution processes. To this end, the unbound brain-to-plasma concentration ratio, Kp,uu,brain, is the key neuroPK parameter to obtain for the assessment of the extent of BBB transport. With the Combinatory Mapping Approach (CMA), evaluation of the neuroPK parameters of unbound drugs can be obtained in a more high-throughput mode, which makes it useful for CNS drug discovery. The CMA employs several in vivo and in vitro methods to provide a comprehensive assessment of drug properties concerning BBB transport and intra-brain distribution. In an in vivo neuroPK study, the total concentrations of drugs in the brain and plasma are determined at the steady state, which is pivotal for assessing Kp,brain (Figure 1(A1)). In parallel, in vitro investigations involve the determination of unbound fractions of drugs in the plasma (fu,plasma) and brain tissue binding properties (fu,brain) using equilibrium dialysis and the brain slice method (Vu,brain) (Figure 1(B1,C1)). Finally, a combination of these acquired parameters enables the estimation of Kp,uu,brain and the unbound drug cell partitioning coefficient (Kp,uu,cell). Kp,uu,brain represents the ratio of brain interstitial fluid (ISF) to the plasma unbound drug concentrations at the steady state, providing a quantitative description of the net BBB drug transport. This parameter relies on three compound-specific parameters, Kp,brain, Vu,brain, and fu,plasma. […] Kp,uu,cell represents the steady-state ratio of intracellular to extracellular unbound drug concentrations, describing the drug transport across the cellular membrane.
The unbound brain-to-plasma concentration ratio, Kp,uu,brain, was calculated by using the three compound-specific parameters: Kp,brain, Vu,brain, and fu,plasma:(4) Kp,uu,brain=Kp,brain/Vu,brain·fu,plasma
The unbound intracellular-to-extracellular (interstitial) concentration ratio, Kp,uu,cell, was estimated by using the Vu,brain and fu,brain parameters:(5) Kp,uu,cell=Vu,brain·fu,brain
Due to the multiparameter character of Kp,uu,brain and Kp,uu,cell assessment (Equations (4) and (5)), the estimation of variability around the mean values was calculated using an error propagation method as described in Loryan et al. (2017).
The Kp,uu,brain values were further used to calculate the unbound drug concentration in the brain interstitial fluid Cu,brain,ISF, according to Loryan et al. (2014):(6) Cu,brain,ISF=Kp,uu,brain·Cu,plasma

With `NC(=O)C[S@@+]([O-])C(c1ccccc1)c1ccccc1` [R-modafinil, reference compound], the “Pe (permeability coefficient)” value in data set [1] was 383 nm/s. Moreover, the fraction unbound at 5 h, 10 µM in data set [2] came out at 0.23 ± 0.1. In data set [3], the “free (unbound) in plasma” value was 80%; the “Fraction unbound in plasma, fu,plasma” value came to 0.797 ± 0.15 unitless; the fraction unbound at 5 h, 10 µM was 0.79. In data set [4] (HLMs), the “% of the parent drug remaining” value was determined as 90%, the half-life at 1 µM was determined as 6.07 h and the microsomal CLint at 1 µM worked out at 0.4 µL/min/mg. In data set [4] (HLMs, 5, 10 and 50 µM), the metabolized is on record as not above 10%. For the same compound, in data set [5], the concentration at 4 h is 0.282 µM, the Kp uu at 4 h stood at 0.097 ± 0.034, the Kp uu was 0.85 ± 0.6 and the “Kp,uu at the blood–spinal cord barrier (BSCB)” value is “dominating net active efflux”. In data set [5] (brain), the Kp uu at 4 h worked out at 0.1.

On to `[O-][S@@+](Cc1cncs1)C(c1ccccc1)c1ccccc1` [S-CE-123], for which, in data set [1], the “Pe (permeability coefficient)” value was 500 nm/s. Also, in data set [2] (rat brain homogenate), the “brain tissue binding capacity, fold higher compared to R-modafinil” value turned out to be 6.6 fold. Further, in data set [2], the fraction unbound at 5 h, 10 µM stood at 0.035 ± 0.012. Further, in data set [3], the “free (unbound) in plasma” value worked out at 25%; the “Fraction unbound in plasma, fu,plasma” value turned out to be 0.252 ± 0.023 unitless; the fraction unbound at 5 h, 10 µM is 0.25. Moreover, in data set [4] (HLMs), the “fold faster metabolism compared to R-modafinil” value is 9.3 fold, the “% of the parent drug remaining” value is given as 35%, the half-life at 1 µM came out at 0.65 h and the microsomal CLint at 1 µM was determined as 3.6 µL/min/mg. Besides, in data set [5], the concentration at 4 h came to 0.386 µM; the Kp uu at 4 h is 0.46 ± 0.032; the “fold difference in Kp,uu,brain, S-CE-123 vs R-modafinil” value is “ca. 5 fold”; the Kp uu came to 0.18 ± 0.09. In data set [5], the “Kp,uu at the blood–spinal cord barrier (BSCB)” value is “closer to unity”. Also, the Kp uu at 4 h in data set [5] (brain) was 0.5.
